Reference: the supplement of paper PMC6045584
± gives the standard deviation of the averaged measurements.

What was measured:
[1] = compound: Cc1c(N)nc([C@H](CC(N)=O)NC[C@H](N)C(N)=O)nc1C(=O)N[C@H](C(=O)N[C@H](C)[C@@H](O)[C@H](C)C(=O)N[C@H](C(=O)NCCc1nc(-c2nc(C(=O)NCCC[S+](C)C)cs2)cs1)[C@@H](C)O)[C@@H](OC1OC(CO)C(O)C(O)C1OC1OC(CO)C(O)C(OC(N)=O)C1O)c1cnc[nH]1 [BLEOMYCIN]; assay: surviving fraction relative to DMSO-only wells; higher = less growth inhibition; details: exposure time: 5 days
Method in brief: (§1)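 Log-phase tumour cells were seeded at 250–500 per well in 384-well plates and, from 24 hours after seeding, exposed continuously for five days to inhibitors at 0.5, 1, 5, 10, 50, 100, 500 and 1000 nM. Surviving fraction is CellTiter-Glo luminescence normalised to the median of DMSO-only wells. Luminescence was measured after 10 minutes at room temperature, and only lines screened three times with replicate Pearson r >0.7 and median Z' >0.3 were kept.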

[2] = compound: Cn1ncnc1[C@H]1c2n[nH]c(=O)c3cc(F)cc(c23)N[C@@H]1c1ccc(F)cc1 [BMN-673]; assay: as above; details: exposure time: 5 days
Method in brief: as §1

Row | Test System | surviving fraction ([1]; 0.5 nM) | surviving fraction ([1]; 1 nM) | surviving fraction ([1]; 5 nM) | surviving fraction ([1]; 10 nM) | surviving fraction ([1]; 50 nM) | surviving fraction ([1]; 100 nM) | surviving fraction ([1]; 500 nM) | surviving fraction ([1]; 1000 nM) | surviving fraction ([2]; 0.5 nM) | surviving fraction ([2]; 1 nM) | surviving fraction ([2]; 5 nM) | surviving fraction ([2]; 10 nM) | surviving fraction ([2]; 50 nM) | surviving fraction ([2]; 100 nM) | surviving fraction ([2]; 500 nM) | surviving fraction ([2]; 1000 nM)
1 | SUM149 BREAST | 0.779 ± 0.092 | 0.889 ± 0.09 | 0.707 ± 0.034 | 0.451 ± 0.08 | 0.273 ± 0.029 | 0.255 ± 0.069 | 0.106 ± 0.015 | 0.048 ± 0.013 | 0.857 ± 0.051 | 0.721 ± 0.068 | 0.301 ± 0.019 | 0.226 ± 0.023 | 0.176 ± 0.017 | 0.163 ± 0.014 | 0.149 ± 0.0045 | 0.145 ± 0.024
2 | SUM149.B1*.S BREAST | 0.884 ± 0.032 | 0.943 ± 0.024 | 0.928 ± 0.028 | 0.883 ± 0.042 | 0.937 ± 0.066 | 0.939 ± 0.059 | 0.55 ± 0.061 | 0.394 ± 0.096 | 1.11 ± 0.036 | 1.03 ± 0.0064 | 1.05 ± 0.058 | 0.931 ± 0.059 | 0.808 ± 0.055 | 0.739 ± 0.063 | 0.451 ± 0.075 | 0.33 ± 0.052
3 | SUM159 BREAST | 1.07 ± 0.18 | 1.02 ± 0.094 | 1.01 ± 0.082 | 0.999 ± 0.086 | 0.948 ± 0.034 | 0.908 ± 0.031 | 0.673 ± 0.13 | 0.246 ± 0.065 | 1.12 ± 0.016 | 1.104 ± 0.0035 | 1.07 ± 0.013 | 1.06 ± 0.011 | 1.079 ± 0.0027 | 1.057 ± 0.0089 | 1.04 ± 0.013 | 0.957 ± 0.031
4 | SYO1 SYNOVIAL | 0.809 ± 0.058 | 0.778 ± 0.044 | 0.753 ± 0.035 | 0.695 ± 0.029 | 0.45 ± 0.014 | 0.355 ± 0.032 | 0.104 ± 0.019 | 0.0704 ± 0.019 | 0.855 ± 0.052 | 0.783 ± 0.023 | 0.499 ± 0.0035 | 0.336 ± 0.0059 | 0.168 ± 0.0078 | 0.125 ± 0.0048 | 0.0544 ± 0.0063 | 0.0423 ± 0.00058
5 | T47D BREAST | 0.947 ± 0.019 | 0.915 ± 0.011 | 0.891 ± 0.02 | 0.9369 ± 0.0063 | 0.951 ± 0.02 | 0.923 ± 0.039 | 0.693 ± 0.011 | 0.57 ± 0.03 | 1.01 ± 0.04 | 0.975 ± 0.036 | 0.872 ± 0.051 | 0.82 ± 0.026 | 0.714 ± 0.019 | 0.654 ± 0.023 | 0.535 ± 0.017 | 0.455 ± 0.0098
6 | U2OS BONE | 0.904 ± 0.028 | 0.942 ± 0.05 | 0.933 ± 0.04 | 0.9 ± 0.039 | 1.01 ± 0.023 | 0.8983 ± 0.0064 | 0.734 ± 0.017 | 0.617 ± 0.011 | 0.9887 ± 0.0081 | 0.994 ± 0.055 | 0.969 ± 0.018 | 0.915 ± 0.029 | 0.834 ± 0.026 | 0.732 ± 0.029 | 0.658 ± 0.029 | 0.647 ± 0.038
7 | VCAP PROSTATE | 0.905 ± 0.018 | 0.953 ± 0.077 | 1.07 ± 0.12 | 1.05 ± 0.12 | 1.07 ± 0.12 | 1.02 ± 0.078 | 0.84 ± 0.024 | 0.889 ± 0.081 | 1.11 ± 0.084 | 0.947 ± 0.086 | 0.995 ± 0.03 | 0.976 ± 0.08 | 0.758 ± 0.029 | 0.711 ± 0.12 | 0.397 ± 0.029 | 0.385 ± 0.017
8 | VP229 BREAST | 0.776 ± 0.093 | 0.759 ± 0.052 | 0.754 ± 0.081 | 0.711 ± 0.072 | 0.915 ± 0.089 | 0.893 ± 0.093 | 0.837 ± 0.08 | 0.665 ± 0.076 | 1.09 ± 0.33 | 1.09 ± 0.16 | 1.1 ± 0.12 | 0.995 ± 0.091 | 0.969 ± 0.026 | 0.922 ± 0.17 | 0.951 ± 0.1 | 0.873 ± 0.19
9 | YAMATO SYNOVIAL | 0.889 ± 0.13 | 0.929 ± 0.095 | 0.955 ± 0.081 | 1.03 ± 0.075 | 1.21 ± 0.083 | 1.11 ± 0.08 | 0.871 ± 0.088 | 0.796 ± 0.033 | 1.08 ± 0.09 | 1.05 ± 0.035 | 1.05 ± 0.07 | 0.852 ± 0.039 | 0.788 ± 0.014 | 0.675 ± 0.035 | 0.503 ± 0.029 | 0.452 ± 0.013
10 | ZR751 BREAST | 0.985 ± 0.037 | 0.975 ± 0.083 | 0.925 ± 0.1 | 0.957 ± 0.19 | 0.905 ± 0.073 | 0.924 ± 0.17 | 0.897 ± 0.15 | 0.69 ± 0.12 | 1.23 ± 0.14 | 1.14 ± 0.15 | 1.04 ± 0.22 | 1 ± 0.15 | 1.01 ± 0.068 | 0.974 ± 0.11 | 1.04 ± 0.07 | 0.816 ± 0.017
